# Laboratory results published in PubChem BioAssay (NCI).
# Values joined by “and” are separate entries in the source; they are usually repeats but may differ in a detail not shown here. Equal values may be shown once.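 Tested at 5 concentrations; 48 h exposure; 96-well plates; endpoints linearly interpolated, else capped at highest concentration. GI50 marks 50% less growth. The concentration for full growth arrest is given as TGI.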
# How the values were obtained:
# Test in all cases: DTP human tumour cell line panel, 48 h
# MDA-MB-231 breast = tested on: MDA-MB-231 breast
# T-47D breast = tested on: T-47D breast
# M14 melanoma = tested on: M14 melanoma
# OVCAR-4 ovarian = tested on: OVCAR-4 ovarian
# SF-268 CNS = tested on: SF-268 CNS
# HCT-116 colon = tested on: HCT-116 colon
# UACC-62 melanoma = tested on: UACC-62 melanoma
# HS 578T breast = tested on: HS 578T breast
# EKVX NSCLC = tested on: EKVX NSCLC
# SNB-19 CNS = tested on: SNB-19 CNS
SMILES,GI50 (MDA-MB-231 breast) [µM],TGI (MDA-MB-231 breast) [µM],GI50 (T-47D breast) [µM],TGI (T-47D breast) [µM],GI50 (M14 melanoma),TGI (M14 melanoma),GI50 (OVCAR-4 ovarian) [µM],TGI (OVCAR-4 ovarian),GI50 (SF-268 CNS) [µM],TGI (SF-268 CNS),GI50 (HCT-116 colon),TGI (HCT-116 colon),GI50 (UACC-62 melanoma) [µM],TGI (UACC-62 melanoma),GI50 (HS 578T breast) [µM],TGI (HS 578T breast) [µM],GI50 (EKVX NSCLC) [µM],TGI (EKVX NSCLC),GI50 (SNB-19 CNS),TGI (SNB-19 CNS)
COc1cc(Nc2ncc3c(C)nc(-c4cccc(Oc5ccccc5)c4)n3n2)cc(OC)c1OC,4.99,> 24.2,4.51,17.2,3.54 µM,19 µM,4.78,> 25 µM,6.6,> 22.7 µM,3.03 µM,> 25 µM,3.3,> 13.8 µM,7.51,> 25,11.2,> 25 µM,12.1 µM,> 25 µM
O=C1Nc2ccccc2/C1=C/c1ccccc1,,46.8,,41.9,,30.6 µM,,83 µM,,35.1 µM,,27 µM,,30.7 µM,,91.8,,28.8 µM,,30 µM
CC(C)=CCc1ccc(O)c(=O)cc1C(C)C,3.36,> 100,3.29,> 100,0.68 µM,3.95 µM,0.532,> 100 µM,0.671,> 100 µM,0.469 µM,> 100 µM,0.493,4.38 µM,48.1,> 100,0.831,> 100 µM,0.735 µM,> 100 µM
C/C=C(\CCC1NCCc2c1[nH]c1ccccc21)[Si](C)(C)C (centres undefined),,4.56,,4.89,4.65 µM and 1.82 µM,8.8 µM and 3.66 µM,,12.6 µM and 9.04 µM,,26.2 µM and 23.6 µM,5.6 µM and 1.71 µM,10.3 µM and 3.13 µM,,11.8 µM and 12.3 µM,,6.28,,28.6 µM and 22.1 µM,15.4 µM and 7.22 µM,30 µM and 22 µM
COc1ccc(N(C)c2nc(Cl)nc3ccn(C)c23)cc1,< 0.01,> 100,> 100,> 100,< 0.01 µM,> 100 µM,< 0.01,> 100 µM,< 0.01,> 100 µM,< 0.01 µM,> 100 µM,< 0.01,> 100 µM,< 0.01,> 100,< 0.01,> 100 µM,< 0.01 µM,> 100 µM
COc1ccc(/C(=N\O)c2cc(OC)c(OC)c(OC)c2)c(OC)c1N,4.6,> 100,> 100,> 100,2.98 µM,> 100 µM,12.4,> 100 µM,6.5,> 100 µM,2.82 µM,> 100 µM,,,5.51,> 100,5.96,> 100 µM,5.61 µM,> 100 µM
Cc1cc(O)ccc1O,11.4,23.6,18.2,60.8,,,15.6,29 µM,35.3,> 100 µM,16.9 µM,32.9 µM,17.9,81.3 µM,26.7,> 100,36.9,> 100 µM,41.4 µM,> 100 µM
